# Where a name gives a salt, the structure may show the parent alone.
# Experiments:
# [1] = target: T1, α-1A adrenoreceptor (rat vas deferens) (Rattus norvegicus, UniProt P43140); assay: Functional antagonism: inhibition of phenylephrine-induced contraction of rat vas deferens; type: cell-based; conditions: rat vas deferens, phenylephrine-induced contraction, Schild plot
# T1 construct: from tissue; host or cells: rat vas deferens
# T1 sequence (P43140 1-466): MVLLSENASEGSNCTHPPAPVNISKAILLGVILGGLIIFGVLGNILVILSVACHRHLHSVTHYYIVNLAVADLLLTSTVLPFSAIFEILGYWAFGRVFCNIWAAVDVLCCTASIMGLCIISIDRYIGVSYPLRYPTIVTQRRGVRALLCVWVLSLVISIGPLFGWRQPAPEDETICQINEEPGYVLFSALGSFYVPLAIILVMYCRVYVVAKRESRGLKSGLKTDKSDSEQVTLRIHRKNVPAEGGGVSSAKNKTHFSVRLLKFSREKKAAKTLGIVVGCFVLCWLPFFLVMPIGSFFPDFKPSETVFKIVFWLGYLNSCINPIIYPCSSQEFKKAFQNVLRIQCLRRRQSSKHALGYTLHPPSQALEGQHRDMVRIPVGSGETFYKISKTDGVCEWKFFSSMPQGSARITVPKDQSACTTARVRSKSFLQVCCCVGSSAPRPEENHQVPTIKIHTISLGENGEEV
# Text: (§1) Functional assays indicative of pharmacologically defined α-1 adrenoreceptors were used to further characterize compounds. Inhibition of phenylephrine (PE)-induced contraction of canine prostate smooth muscle can be correlated with α-1A adrenoreceptor activation. […] For each of these models, agonist dose response curves were repeated against increasing concentrations of test agent to derive a Schild plot [log ([…]) against log (molarity of test agent)] to determine the pA2.
# [2] = target: T2, α-1B adrenoreceptor (rat spleen) (Rattus norvegicus, UniProt P15823); assay: Functional antagonism: inhibition of phenylephrine-induced contraction of rat spleen; type: cell-based; conditions: rat spleen, phenylephrine-induced contraction, Schild plot
# T2 construct: from tissue; host or cells: rat spleen
# T2 sequence (P15823 1-515): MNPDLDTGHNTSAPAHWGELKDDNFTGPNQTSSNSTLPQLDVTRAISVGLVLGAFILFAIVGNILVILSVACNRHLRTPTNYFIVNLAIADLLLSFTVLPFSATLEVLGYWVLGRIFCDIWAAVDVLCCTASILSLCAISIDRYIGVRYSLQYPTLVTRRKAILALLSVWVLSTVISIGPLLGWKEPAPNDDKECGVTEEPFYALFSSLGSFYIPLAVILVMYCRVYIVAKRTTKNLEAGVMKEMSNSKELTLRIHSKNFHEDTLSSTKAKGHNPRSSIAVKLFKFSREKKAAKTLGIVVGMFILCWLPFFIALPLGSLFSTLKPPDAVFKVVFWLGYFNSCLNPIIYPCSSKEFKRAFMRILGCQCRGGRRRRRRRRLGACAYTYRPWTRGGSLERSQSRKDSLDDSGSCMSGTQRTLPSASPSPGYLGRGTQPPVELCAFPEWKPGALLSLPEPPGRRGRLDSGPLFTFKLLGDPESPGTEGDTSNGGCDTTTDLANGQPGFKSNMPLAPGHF
# Text: as §1
# [3] = target: T3, α-1 Adrenoceptors (Rat Aorta) (Rattus norvegicus, UniProt P23944); assay: Functional antagonism at α-1 adrenoceptors, rat aorta; type: cell-based; conditions: read-out: In Vitro Characterization (pA2) Rat Aorta (converted)
# T3 construct: Rat Aorta; from tissue; host or cells: rat aorta
# T3 sequence (P23944 1-561): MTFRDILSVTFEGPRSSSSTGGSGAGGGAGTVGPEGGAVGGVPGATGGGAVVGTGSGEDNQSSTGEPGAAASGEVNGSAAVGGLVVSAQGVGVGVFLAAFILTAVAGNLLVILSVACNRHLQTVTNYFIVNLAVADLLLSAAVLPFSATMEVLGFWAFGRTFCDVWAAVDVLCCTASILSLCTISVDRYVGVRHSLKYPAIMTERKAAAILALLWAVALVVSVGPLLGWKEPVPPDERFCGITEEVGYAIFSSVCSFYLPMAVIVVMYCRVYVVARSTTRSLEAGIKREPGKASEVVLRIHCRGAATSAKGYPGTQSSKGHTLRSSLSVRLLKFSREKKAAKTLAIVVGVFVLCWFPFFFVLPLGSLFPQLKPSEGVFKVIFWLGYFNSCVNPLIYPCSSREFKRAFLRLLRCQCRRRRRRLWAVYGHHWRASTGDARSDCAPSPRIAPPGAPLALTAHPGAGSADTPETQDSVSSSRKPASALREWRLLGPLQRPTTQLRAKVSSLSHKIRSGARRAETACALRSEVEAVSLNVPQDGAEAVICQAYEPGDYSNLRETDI
# In short: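 Phenylephrine dose-response curves for contraction were repeated against increasing test-agent concentrations. pA2 was derived by Schild plot [[…] vs log molarity of test agent].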
# α-1 adrenoreceptor = conditions: cited from earlier work
# [4] = antihypertensive treatment; cited from earlier work
SMILES,In Vitro Characterization (pA2) Rat Vas [1],In Vitro Characterization (pA2) Rat Spleen [2],Kb [3],dose limiting side effects (α-1 adrenoreceptor; BPH treatment),"urinary flow rates and subjective symptom scores (α-1 adrenoreceptor; longer term studies, BPH)",urinary incontinence in women [4]
"COc1cccc2c1[C@@H]1CN(CCCCn3c(=O)[nH]c4c(sc5c(Cl)nccc54)c3=O)C[C@@H]1CO2 [Example 53, 3-[4-((3aR,9bR)-cis-9-Methoxy-1,2,3,3a,4,9b-hexahydro-[1]-benzopyrano[3,4-c]pyrrol-2-yl)butyl]-6-chloro-pyrido[4',3':4,5]thieno[3,2-d]pyrimidine-2,4(1H,3H)-dione]",9.31,7.2,1.07 nM,–,–,–
"COc1cccc2c1[C@@H]1CN(CCCCn3c(=O)[nH]c4c(sc5ccncc54)c3=O)C[C@H]1CO2 [Example 41, 3-[4-((3aR,9bR)-trans-9-Methoxy-1,2,3,3a,4,9b-hexahydro-[1]-benzopyrano[3,4-c]pyrrol-2-yl)butyl]-pyrido[3',4':4,5]thieno[3,2-d]pyrimidine-2,4(1H,3H)-dione hydrochloride]",9.45,–,0.017 nM,–,–,–
"COc1ccc2sc3c(=O)n(CCCCN4C[C@@H]5COc6cccc(OC)c6[C@@H]5C4)c(=O)[nH]c3c2n1 [Example 30, 3-[4-((3aR,9bR)-cis-9-Methoxy-1,2,3,3a,4,9b-hexahydro-[1]-benzopyrano[3,4-c]pyrrol-2-yl)butyl]-8-methoxy-pyrido[2',3':4,5]thieno[3,2-d]pyrimidine-2,4(1H,3H)-dione hydrochloride]",9.6,–,0.468 nM,–,–,–
"COc1cccc2c1[C@@H]1CN(CCCCn3c(=O)[nH]c4c(sc5ccncc54)c3=O)C[C@@H]1CO2 [Example 28, 3-[4-((3aR,9bR)-cis-9-Methoxy-1,2,3,3a,4,9b-hexahydro-[1]-benzopyrano[3,4-c]pyrrol-2-yl)butyl]-pyrido[3',3':4,5]thieno[3,2-d]pyrimidine-2,4(1H,3H)-dione hydrochloride]",9.39,–,0.195 nM,–,–,–
"COc1cccc2c1[C@@H]1CN(CCCCn3c(=O)[nH]c4c(sc5nc(C)ccc54)c3=O)C[C@H]1CO2 [Example 45, 3-[4-((3aS,9bR)-trans-9-Methoxy-1,2,3,3a,4,9b-hexahydro-[1]-benzopyrano[3,4-c]pyrrol-2-yl)butyl]-7-methyl-pyrido[3',2':4,5]thieno[3,2-d]pyrimidine-2,4(1H,3H)-dione hydrochloride]",9.59,–,0.209 nM,–,–,–
"COc1cc2nc(N3CCN(C(=O)c4ccco4)CC3)nc(N)c2cc1OC [Prazosin, prazosin]",–,–,–,"hypotension, dizziness, and muscle fatigue",significant improvements in urinary flow rates and subjective symptom scores,urinary incontinence developed in women
